In patent US6916832B2, “Chromeno[4,3,2-de]isoquinolines as potent dopamine receptor ligands” (University of North Carolina at Chapel Hill, priority 1999, dated 2005):

Experiments:
[1] = system: rat unilateral 6-OHDA-lesion model; assay: Rat unilateral 6-OHDA-lesion model, contralateral rotation; format: in vivo
Source text: (§1) Accordingly dinoxyline and its derivatives have potential clinical utility in Parkinson's Disease and in other conditions where perturbation of dopamine receptors may be therapeutic.

[2] = system: marmosets having moderately-severe MPTP-induced dopamine denervation; assay: Marmosets with moderately-severe MPTP-induced dopamine denervation; format: in vivo, marmoset; conditions: preliminary studies
Source text: as §1

[3] = system: striatal D2 receptors; assay: Radioreceptor binding, striatal D2 receptors labeled with [3H]spiperone; parameters: species or system rat; conditions: compared with dihydrexidine
Description: FIG. 3 is a graphic representation of the affinity of dinoxyline (circles), dinapsoline (diamonds), and chlorpromazine for striatal D2 receptors labeled with [^3H]spiperone. Unlabeled dinoxyline, dinapsoline, or chlorpromazine was added to determine the specific binding of each compound to the D2 receptor.
Frozen rat striata was homogenized by seven manual strokes in a Wheaton Teflon-glass homogenizer in 8 ml ice cold 50 mM HEPES buffer with 4.0 mM MgCl2, (pH 7.4). The tissue was centrifuged at 27,000×g for 10 min, the supernatant was discarded, and the pellet was homogenized (5 strokes) and resuspended in ice cold buffer and centrifuged again. The final pellet was suspended at a concentration of approximately 2.0 mg wet weight/ml. The amount of tissue added to each assay tube was 1.0 mg, in a final assay volume of 1.0 ml. D1 receptors were labeled with [^3H] SCH23390 (0.30 nM). D2 receptors were labeled with [^3H] spiperone (0.07 nM); unlabeled ketanserin (50 nM) was added to mask binding to 5HT2 sites. Total binding was defined as radioligand bound in the absence of any competing drug. Nonspecific binding was estimated by adding unlabeled SCH23390 (1 μM) or unlabeled chlorpromazine ([…]) for D1 and D2 receptor binding assays, respectively. […] After shaking for 30 minutes, radioactivity was determined on a LKB Wallac 1219 RackBeta liquid scintillation counter (Wallac, Gaithersburg, Md.). […]

[4] = biological target: T1, D1 receptors (Rattus norvegicus, UniProt P18901); assay: cAMP production in rat striatum homogenate; format: biochemical
T1 construct: Frozen rat striata was homogenized by seven manual strokes; from tissue; host or cells: rat striatum
Description: Frozen striatal tissue (ca. 40 mg) was homogenized in 4 ml of buffer (5 mM Hepes, 2 mM EGTA, pH 7.5) using 10 strokes in a Wheaton Teflon-glass homogenizer. Four ml of 50 mM Hepes with 2 mM EGTA buffer (pH 7.5) was added, and the tissue was homogenized by an additional 3 strokes. A 20 μl aliquot of this tissue homogenate was added to a prepared reaction. The reaction mixture consisted of 100 mM Hepes (pH 7.4), 100 mM NaCl, 4 mM MgCl2, 2 mM EDTA, 500 μM isobutyl methylxanthine (IBMX), 0.01% ascorbic acid, 10 μM pargyline, 2 mM ATP, 5 μM GTP, 20 mM phosphocreatine, 5 units of creatine phosphokinase (CPK), and selected concentrations of DA. The final reaction volume was 100 μl. Basal cAMP activity was determined by incubation of tissue in the reaction mixture with no drug added. Tubes were assayed in duplicate. After a 15 min incubation at 30° C., the reaction was stopped with the addition of 500 μl of 0.1 N HCl. Tubes were vortexed briefly, and then spun in a BHG Hermle Z 230 M microcentrifuge for five min at 15,000×g to eliminate large particles. The concentration of cAMP in each sample was determined with an RIA of acetylated cAMP, modified from that previously described (Harper and Brooker, 1975). Iodination of cAMP was performed using a method described previously (Patel and Linden, 1988). Assay buffer was 50 mM sodium acetate buffer with 0.1% sodium azide (pH 4.75). Standard curves of cAMP were prepared in buffer at concentrations of 2 to 500 fmoles/assay tube. To improve assay sensitivity, all samples and standards were acetylated with 10 μl of a 2:1 solution of triethylamine:acetic anhydride. Samples were assayed in duplicate. Each assay tube contained 100 μl of diluted sample, 100 μl of primary antibody (sheep, anti-cAMP, 1:100,000 dilution with 1% BSA in buffer) and 100 μl of [^125I]-cAMP (50,000 dpm/100 μl of buffer); total assay volume was 300 μl. Tubes were vortexed and stored at 4° C. overnight (approx. 18 hr). Antibody-bound radioactivity was then separated by the addition of 25 μL of BioMag rabbit, anti-goat IgG (Advanced Magnetics, Cambridge Mass.), followed by vortexing and further incubation at 4° C. for 1 hr. To these samples 1 ml of 12% polyethylene glycol/50 mM sodium acetate buffer (pH 6.75) was added and all tubes were centrifuged at 1700×g for 10 min. Supernatants were aspirated and radioactivity in the resulting pellet was determined using an LKB Wallac gamma counter (Gaithersburg, Md.). Data were calculated for each sample, and expressed initially as pmol/mg/min cAMP. […] Normalized dose-response curves were analyzed by nonlinear regression using an algorithm for sigmoid curves in the curvefitting program InPlot (Graphpad, Inc.; San Francisco, Calif.). […]

T1 sequence (P18901 whole entry): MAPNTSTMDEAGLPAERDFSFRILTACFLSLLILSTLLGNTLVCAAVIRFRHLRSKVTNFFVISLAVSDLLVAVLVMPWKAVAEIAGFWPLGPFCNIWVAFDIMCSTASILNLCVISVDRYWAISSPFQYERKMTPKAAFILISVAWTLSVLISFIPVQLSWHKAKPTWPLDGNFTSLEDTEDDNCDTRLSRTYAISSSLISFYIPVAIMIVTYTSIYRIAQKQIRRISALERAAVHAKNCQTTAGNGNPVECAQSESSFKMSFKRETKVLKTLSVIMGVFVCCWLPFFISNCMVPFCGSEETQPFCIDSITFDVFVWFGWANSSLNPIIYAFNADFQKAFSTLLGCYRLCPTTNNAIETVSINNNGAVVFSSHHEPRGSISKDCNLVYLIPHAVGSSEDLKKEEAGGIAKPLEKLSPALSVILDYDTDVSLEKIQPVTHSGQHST

For `Br.Oc1ccc2c(c1O)Oc1cccc3c1C2CNC3` (racemic) [dinoxyline, (±)-8,9-dihydroxy-1,2,3,11b-tetrahydrochromeno[4,3,2-de]isoquinoline hydrobromide], which “duration of action relative to a similar dose of dihydrexidine” value ([1]; same route (subcutaneous)) is on record?
The value was “more than twice”.

And the contralateral rotation ([1]; single subcutaneous dose)?
The contralateral rotation was “significant rotation”.

What about the “antiparkinson effects (locomotion, arousal, Parkinson signs)” value [2] of the same compound?
The value was “significant antiparkinson effects”.

What about the “affinity for D2-like receptors (in words)” value [3] of the same compound?
Its value is “greater affinity”.

And the “agonist intrinsic activity at D1 receptors” value ([4]; rat striatum / rat striatal membranes, relative to dopamine, hydrobromide)?
The value was “full agonist activity”.

And the EC50 ([4]; rat striatum, read-out: EC50 in stimulating synthesis of cAMP via D1 receptors)?
The EC50 was less than 30 nM.
